In US10550105B2 (Ribon Therapeutics Inc., priority 2018, dated 2020) one finds IC50 data, which are given here for 27 molecules.

pIC50: −log10 of the molar value.

The assay addresses PARP7 (Homo sapiens (Human), UniProt Q7Z3E1). In words: Enzymatic assay for inhibition of PARP7: TR-FRET displacement of biotinylated Probe A from the TIPARP active site. It is filed as binding. Particulars: Table A-1. The method in brief: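 Percent inhibition derives from the ratio of 665 to 615 nm emission, which reports how much Probe A remains bound to TIPARP. Plates sat 30 min at 25° C before the time-resolved read (320 nm excitation).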
In general terms: Time-resolved FRET reads energy transfer from a long-lived donor to a nearby acceptor.

Chain of PARP7 (Q7Z3E1 whole entry): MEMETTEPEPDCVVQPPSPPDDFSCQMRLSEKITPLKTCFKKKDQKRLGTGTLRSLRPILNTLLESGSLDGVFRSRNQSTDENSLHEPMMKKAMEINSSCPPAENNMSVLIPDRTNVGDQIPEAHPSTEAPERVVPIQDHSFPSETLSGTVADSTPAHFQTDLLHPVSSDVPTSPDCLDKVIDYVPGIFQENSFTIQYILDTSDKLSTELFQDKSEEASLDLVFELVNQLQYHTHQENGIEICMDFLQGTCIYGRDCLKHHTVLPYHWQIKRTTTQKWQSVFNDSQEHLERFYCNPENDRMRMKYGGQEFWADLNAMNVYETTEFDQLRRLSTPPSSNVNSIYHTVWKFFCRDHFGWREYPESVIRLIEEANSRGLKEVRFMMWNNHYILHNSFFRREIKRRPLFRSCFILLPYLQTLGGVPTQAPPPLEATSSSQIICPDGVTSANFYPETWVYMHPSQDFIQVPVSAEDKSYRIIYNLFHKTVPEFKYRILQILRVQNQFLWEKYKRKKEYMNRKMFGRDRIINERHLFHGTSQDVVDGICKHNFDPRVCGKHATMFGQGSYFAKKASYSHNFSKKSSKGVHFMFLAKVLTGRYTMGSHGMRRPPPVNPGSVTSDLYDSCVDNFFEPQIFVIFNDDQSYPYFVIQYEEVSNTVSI

The pIC50 is −log10 of the IC50, conventionally taken in molar units. High values mean a small IC50, low ones a large IC50. `N#Cc1ccc(N2CCN(C(=O)c3cccc(OCC4c5ccccc5CN4c4cn[nH]c(=O)c4C(F)(F)F)c3)CC2)nc1` (stereo not drawn) [Example 340, 6-(4-(3-((2-(6-Oxo-5-(trifluoromethyl)-1,6-dihydropyridazin-4-yl)isoindolin-1-yl)methoxy)benzoyl)piperazin-1-yl)nicotinonitrile]: the pIC50 was > 7.00.
Consider `O=C(c1cccc(OCC2c3ccccc3CN2c2cn[nH]c(=O)c2C(F)(F)F)c1)N1CCN(c2ccccn2)CC1` (stereo not drawn) [Example 341, 5-(1-((3-(4-(Pyridin-2-yl)piperazine-1-carbonyl)phenoxy)methyl)isoindolin-2-yl)-4-(trifluoromethyl)pyridazin-3(2H)-one], for which the pIC50 was > 7.00.
Next, `O=C(O)c1cccc(OCC2c3ccccc3CN2c2cn[nH]c(=O)c2C(F)(F)F)c1` (stereo not drawn) [Example 342, 3-((2-(6-Oxo-5-(trifluoromethyl)-1,6-dihydropyridazin-4-yl)isoindolin-1-yl)methoxy)benzoic acid]: ≤ 6.00.
On to `CN(CC1c2ccccc2CN1c1cn[nH]c(=O)c1C(F)(F)F)c1cccc(C(=O)N2CCN(c3ccc(C#N)cn3)CC2)c1` (stereo not drawn) [Example 343, 6-(4-(3-(Methyl((2-(6-oxo-5-(trifluoromethyl)-1,6-dihydropyridazin-4-yl)isoindolin-1-yl)methyl)amino)benzoyl)piperazin-1-yl)nicotinonitrile], for which the pIC50 was ≤ 6.00.
For `CN(CC1c2ccccc2CN1c1cn[nH]c(=O)c1C(F)(F)F)c1cccc(C(=O)N2CCN(c3ccccn3)CC2)c1` (stereo not drawn) [Example 344, 5-(1-((Methyl(3-(4-(pyridin-2-yl)piperazine-1-carbonyl)phenyl)amino)methyl)isoindolin-2-yl)-4-(trifluoromethyl)pyridazin-3(2H)-one] the value was 6.00 to 7.00.
`CN(CC1c2ccccc2CN1c1cn[nH]c(=O)c1C(F)(F)F)c1cccc(C(=O)O)c1` (stereo not drawn) [Example 345, 3-(Methyl((2-(6-oxo-5-(trifluoromethyl)-1,6-dihydropyridazin-4-yl)isoindolin-1-yl)methyl)amino)benzoic acid]: the pIC50 is ≤ 6.00.
Next, `COc1nccc2c1CN(c1cn[nH]c(=O)c1C(F)(F)F)C2` [Example 346, 5-(4-Methoxy-1,3-dihydro-2H-pyrrolo[3,4-c]pyridin-2-yl)-4-(trifluoromethyl)pyridazin-3(2H)-one]: > 7.00.
For `O=c1[nH]ncc(N2Cc3cccc(OC4CCN(CC(c5ccccc5)c5ccccc5)CC4)c3C2)c1C(F)(F)F` [Example 347, 5-(4-((1-(2,2-Diphenylethyl)piperidin-4-yl)oxy)isoindolin-2-yl)-4-(trifluoromethyl)pyridazin-3(2H)-one] the value was > 7.00.
Next, `N#Cc1ccc(N2CCN(C(=O)c3cccc(NCC4c5ccccc5CN4c4cn[nH]c(=O)c4C(F)(F)F)c3)CC2)nc1` (stereo not drawn) [Example 348, 6-(4-(3-(((2-(6-Oxo-5-(trifluoromethyl)-1,6-dihydropyridazin-4-yl)isoindolin-1-yl)methyl)amino)benzoyl)piperazin-1-yl)nicotinonitrile]: > 7.00.
`O=C(c1cccc(OC[C@H]2c3ccccc3CN2c2cn[nH]c(=O)c2C(F)(F)F)c1)N1CCN(c2ccccn2)CC1` [Example 350, (R)-5-(1-((3-(4-(Pyridin-2-yl)piperazine-1-carbonyl)phenoxy)methyl)isoindolin-2-yl)-4-(trifluoromethyl)pyridazin-3(2H)-one] gave a pIC50 of 6.00 to 7.00.
Next, `O=C(c1cccc(NCC2c3ccccc3CN2c2cn[nH]c(=O)c2C(F)(F)F)c1)N1CCN(c2ccccn2)CC1` (stereo not drawn) [Example 351, 5-(1-(((3-(4-(Pyridin-2-yl)piperazine-1-carbonyl)phenyl)amino)methyl)isoindolin-2-yl)-4-(trifluoromethyl)pyridazin-3(2H)-one]: 6.00 to 7.00; `N#Cc1ccc(N2CCN(C(=O)c3cncc(OCC4c5ccccc5CN4c4cn[nH]c(=O)c4C(F)(F)F)c3)CC2)nc1` (stereo not drawn) [Example 352, 6-(4-(5-((2-(6-Oxo-5-(trifluoromethyl)-1,6-dihydropyridazin-4-yl)isoindolin-1-yl)methoxy)nicotinoyl)piperazin-1-yl)nicotinonitrile]: > 7.00.
For `N#Cc1ccc(N2CCN(C(=O)c3cncc(OC[C@@H]4c5ccccc5CN4c4cn[nH]c(=O)c4C(F)(F)F)c3)CC2)nc1` [Example 353, (S)-6-(4-(5-((2-(6-Oxo-5-(trifluoromethyl)-1,6-dihydropyridazin-4-yl)isoindolin-1-yl)methoxy)nicotinoyl)piperazin-1-yl)nicotinonitrile] the value was > 7.00.
The molecule `N#Cc1ccc(N2CCN(C(=O)c3cncc(OC[C@H]4c5ccccc5CN4c4cn[nH]c(=O)c4C(F)(F)F)c3)CC2)nc1` [Example 354, (R)-6-(4-(5-((2-(6-Oxo-5-(trifluoromethyl)-1,6-dihydropyridazin-4-yl)isoindolin-1-yl)methoxy)nicotinoyl)piperazin-1-yl)nicotinonitrile] showed a pIC50 of 6.00 to 7.00.
Take `N#Cc1ccc(N2CCN(C(=O)c3cc(OCC4c5ccccc5CN4c4cn[nH]c(=O)c4C(F)(F)F)ccn3)CC2)nc1` (stereo not drawn) [Example 355, 6-(4-(4-((2-(6-Oxo-5-(trifluoromethyl)-1,6-dihydropyridazin-4-yl)isoindolin-1-yl)methoxy)picolinoyl)piperazin-1-yl)nicotinonitrile]: the pIC50 is > 7.00.
Regarding `N#Cc1ccc(N2CCN(C(=O)c3cc(OC[C@H]4c5ccccc5CN4c4cn[nH]c(=O)c4C(F)(F)F)ccn3)CC2)nc1` [Example 356, (R)-6-(4-(4-((2-(6-Oxo-5-(trifluoromethyl)-1,6-dihydropyridazin-4-yl)isoindolin-1-yl)methoxy)picolinoyl)piperazin-1-yl)nicotinonitrile], the pIC50 was 6.00 to 7.00.
For `N#Cc1ccc(N2CCN(C(=O)c3cc(OC[C@@H]4c5ccccc5CN4c4cn[nH]c(=O)c4C(F)(F)F)ccn3)CC2)nc1` [Example 357, (S)-6-(4-(4-((2-(6-Oxo-5-(trifluoromethyl)-1,6-dihydropyridazin-4-yl)isoindolin-1-yl)methoxy)picolinoyl)piperazin-1-yl)nicotinonitrile] the value was > 7.00; for `N#Cc1cccnc1N1CCN(C(=O)c2cccc(OCC3c4ccccc4CN3c3cn[nH]c(=O)c3C(F)(F)F)c2)CC1` (stereo not drawn) [Example 358, 2-(4-(3-((2-(6-Oxo-5-(trifluoromethyl)-1,6-dihydropyridazin-4-yl)isoindolin-1-yl)methoxy)benzoyl)piperazin-1-yl)nicotinonitrile], > 7.00; for `N#Cc1cccnc1N1CCN(C(=O)c2cccc(OC[C@@H]3c4ccccc4CN3c3cn[nH]c(=O)c3C(F)(F)F)c2)CC1` [Example 359, (S)-2-(4-(3-((2-(6-Oxo-5-(trifluoromethyl)-1,6-dihydropyridazin-4-yl)isoindolin-1-yl)methoxy)benzoyl)piperazin-1-yl)nicotinonitrile], > 7.00.
Next, `N#Cc1cccnc1N1CCN(C(=O)c2cccc(OC[C@H]3c4ccccc4CN3c3cn[nH]c(=O)c3C(F)(F)F)c2)CC1` [Example 360, (R)-2-(4-(3-((2-(6-Oxo-5-(trifluoromethyl)-1,6-dihydropyridazin-4-yl)isoindolin-1-yl)methoxy)benzoyl)piperazin-1-yl)nicotinonitrile]: ≤ 6.00; `N#Cc1cnc(N2CCN(C(=O)c3cccc(OCC4c5ccccc5CN4c4cn[nH]c(=O)c4C(F)(F)F)c3)CC2)nc1` (stereo not drawn) [Example 361, 2-(4-(3-((2-(6-Oxo-5-(trifluoromethyl)-1,6-dihydropyridazin-4-yl)isoindolin-1-yl)methoxy)benzoyl)piperazin-1-yl)pyrimidine-5-carbonitrile]: > 7.00.
On to `CN1CCN(C(=O)c2cccc(OCC3c4ccccc4CN3c3cn[nH]c(=O)c3C(F)(F)F)c2)CC1` (stereo not drawn) [Example 362, 5-(1-((3-(4-Methylpiperazine-1-carbonyl)phenoxy)methyl)isoindolin-2-yl)-4-(trifluoromethyl)pyridazin-3(2H)-one], for which the pIC50 is 6.00 to 7.00.
For `O=C(c1cccc(OCC2c3ccccc3CN2c2cn[nH]c(=O)c2C(F)(F)F)c1)N1CCNCC1` (stereo not drawn) [Example 363, 5-(1-((3-(Piperazine-1-carbonyl)phenoxy)methyl)isoindolin-2-yl)-4-(trifluoromethyl)pyridazin-3(2H)-one] the value was ≤ 6.00.
For `N#Cc1cnc(N2CCN(C(=O)c3cccc(OC[C@H]4c5ccccc5CN4c4cn[nH]c(=O)c4C(F)(F)F)c3)CC2)nc1` [Example 364, (R)-2-(4-(3-((2-(6-oxo-5-(trifluoromethyl)-1,6-dihydropyridazin-4-yl)isoindolin-1-yl)methoxy)benzoyl)piperazin-1-yl)pyrimidine-5-carbonitrile] the value was ≤ 6.00.
Next, `N#Cc1cnc(N2CCN(C(=O)c3cccc(OC[C@@H]4c5ccccc5CN4c4cn[nH]c(=O)c4C(F)(F)F)c3)CC2)nc1` [Example 365, (S)-2-(4-(3-((2-(6-oxo-5-(trifluoromethyl)-1,6-dihydropyridazin-4-yl)isoindolin-1-yl)methoxy)benzoyl)piperazin-1-yl)pyrimidine-5-carbonitrile]: > 7.00.
`N#Cc1cnc(N2CCN(C(=O)c3cccc(OCC4c5ccccc5CN4c4cn[nH]c(=O)c4C(F)(F)F)c3)CC2)cn1` (stereo not drawn) [Example 366, 5-(4-(3-((2-(6-Oxo-5-(trifluoromethyl)-1,6-dihydropyridazin-4-yl)isoindolin-1-yl)methoxy)benzoyl)piperazin-1-yl)pyrazine-2-carbonitrile]: the pIC50 was > 7.00.
Next, `O=C(c1cccc(OCC2c3ccccc3CN2c2cn[nH]c(=O)c2C(F)(F)F)c1)N1CCn2c(nnc2C(F)(F)F)C1` (stereo not drawn) [Example 367, 4-(Trifluoromethyl)-5-(1-((3-(3-(trifluoromethyl)-5,6,7,8-tetrahydro-[1,2,4]triazolo[4,3-a]pyrazine-7-carbonyl)phenoxy)methyl)isoindolin-2-yl)pyridazin-3(2H)-one]: > 7.00.
